Where two headings read alike, the source gives them in different places.
Experiments:
[1] = test system: breast carcinoma cell lines MCF-7; assay: In vitro cytotoxic activity, Calcein AM assay, MCF7; type: cell-based, human; settings: read-out: IC 50 MCF7
Procedure, shortened: (§1)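 10^4 cells/well, 24 h stabilisation; cpd 6 × 4-fold dilutions, top 166.7 μM, duplicates, 72 h, 37 °C, 5% CO2; Calcein AM 1 h, fluorescence vs untreated controls; GI50 from curve.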

[2] = test system: human malignant melanoma cells G361; assay: In vitro cytotoxic activity, Calcein AM assay, G-361; type: cell-based; settings: read-out: IC 50 G-361
Description: One of the parameters used, as the basis for cytotoxicity assays, is the metabolic activity of viable cells. For example, a microtiter assay, which uses the Calcein AM, is now widely used to quantitate cell proliferation and cytotoxicity. For instance, this assay is used in drug screening programs and in chemosensitivity testing. Because only metabolically active cells cleave Calcein AM, these assays detect viable cells exclusively. The quantity of reduced Calcein AM corresponds to the number of vital cells in the culture.
Human T-lymphoblastic leukemia cell line CEM; promyelocytic HL-60 and monocytic U937 leukemias; breast carcinoma cell lines MCF-7; cervical carcinoma cells HELA; mouse fibroblasts NIH3T3; human erythroleukaemia K562 and human malignant melanoma cells G361 were used for routine screening of compounds. The cells were maintained in Nunc/Corning 80 cm^2 plastic tissue culture flasks and cultured in cell culture medium (DMEM with 5 g/l glucose, 2 mM glutamine, 100 U/ml penicillin, 100 μg/ml streptomycin, 10% fetal calf serum and sodium bicarbonate).
The cell suspensions that were prepared and diluted according to the particular cell type and the expected target cell density (10^4 cells per well based on cell growth characteristics) were added by pipette (80 μl) into 96/well microtiter plates. Inoculates were allowed a pre-incubation period of 24 hours at 37° C. and 5% CO2 for stabilisation. Four-fold dilutions of the intended test concentration were added at time zero in 20 μl aliquots to the microtiter plate wells. Usually, test compound was evaluated at six 4-fold dilutions. In routine testing, the highest well concentration was 166.7 μM, but it can be the matter of change dependent on the agent. All drug concentrations were examined in duplicates. Incubations of cells with the test compounds lasted for 72 hours at 37° C., in 5% CO2 atmosphere and 100% humidity. At the end of incubation period, the cells were assayed by using the Calcein AM. Ten microliters of the stock solution were pipetted into each well and incubated further for 1 hours. Fluorescence (FD) was measured with the Labsystem FIA Reader Fluoroscan Ascent (UK). The tumour cell survival (GI50) was calculated using the following equitation: GI50=(FDdrug exposed well/mean FDcontrol wells)×100%. The GI50 value, the drug concentration lethal to 50% of the tumour cells, was calculated from the obtained dose response curves (FIG. 3).

HOS = assay: In vitro cytotoxic activity, Calcein AM assay, HOS; type: cell-based; settings: 72 hours
[3] = test system: human erythroleukaemia K562; assay: In vitro cytotoxic activity, Calcein AM assay, K-562; type: cell-based; settings: read-out: IC 50 K-562
Procedure, shortened: as §1

[4] = test system: Human T-lymphoblastic leukemia cell line CEM; assay: In vitro cytotoxic activity, Calcein AM assay, CEM; type: cell-based; settings: 72 hours
Procedure, shortened: as §1

promyelocytic HL-60 = assay: In vitro cytotoxic activity, Calcein AM assay, HL60; type: cell-based, human; settings: read-out: IC 50 HL60
Procedure, shortened: as §1

mouse fibroblasts NIH3T3 = assay: In vitro cytotoxic activity, Calcein AM assay, NIH-3T3; type: cell-based; settings: read-out: IC 50 NIH-3T3
Procedure, shortened: as §1

[5] = test system: Amaranthus caudatus cotyledon/hypocotyl explants; assay: Amaranthus bioassay (betacyanin content); type: in vivo
Procedure, shortened: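 Surface-sterilised Amaranthus caudatus var. atropurpurea seeds were germinated 72 h at 25° C. in darkness, then de-rooted. Cotyledon/hypocotyl explants (20 per dish) were incubated under green safe light on filter paper with 1 ml medium of 10 μmol NA2HPO4-KH2PO4, pH 6.8, 5 μmol tyrosine and cytokinin (10^-8M to 10^-4M) for 48 h at 25° C. in darkness. Betacyanin was extracted in […] acetic acid and measured by absorbance at 537 nm and 620 nm.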

[6] = test system: Triticum aestivum cv. Hereward; assay: Senescence inhibition on winter wheat leaf segments (chlorophyll retention); type: in vivo
Procedure, shortened: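 Tip segments of the first leaf from 7-day wheat seedlings held, basal ends down, in cytokinin solutions (10^−8M to 10^−4M) for 96 h at 25° C in darkness. Chlorophyll extracted in 80% ethanol at 80° C, read at 665 nm; activity at best concentration given relative to 10^−4 M BAP (100%), means of five replicates.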

[7] = test system: tobacco callus Nicotiana tabacum L. cv. Wisconsin 38; assay: Growth of cytokinin-dependent tobacco callus; type: cell-based
Procedure: Cytokinin-dependent tobacco callus Nicotiana tabacum L. cv. Wisconsin 38 was maintained at 25° C. in darkness on modified Murashige-Skoog medium, containing per 1 liter: 4 μmol nicotinic acid, 2.4 μmol pyridoxine hydrochloride, 1.2 μmol thiamine, 26.6 μmol glycine, 1.37 μmol glutamine, 1.8 μmol myo-inositol, 30 g of sucrose, 8 g of agar, 5.37 μmol α-naphtylacetic acid (NAA) and 0.5 μmol benzylaminopurine (BAP). Subcultivation was carried out every three weeks. Fourteen days before the bioassay, the callus tissue was transferred to the media without 6-benzylaminopurine (BAP). Biological activity was determined from the increase in fresh callus weight after four weeks of cultivation. Five replicates were prepared for each cytokinin concentration and the entire test was repeated twice. From the obtained data, the concentration with highest activity was selected for each compound tested. Relative activity of the compound at this concentration was calculated (Tab. 6). […] The cytokinins to be tested were dissolved in dimethylsulfoxide (DMSO) and the solution brought up to 10^−3M with distilled water. This stock was further diluted in the respective media used for the biotest to concentrations ranging from 10^−8M to 10^−4M.

SMILES | IC50 ([1]; 72 hours) [µM] | IC50 ([2]; 72 hours) [µM] | IC50 (HOS) [µM] | IC50 ([3]; 72 hours) [µM] | IC50 [4] [µM] | IC50 (promyelocytic HL-60; 72 hours) [µM] | IC50 (mouse fibroblasts NIH3T3; 72 hours) [µM] | IC50 ([1]; Homo sapiens, MCF7, 72 hours) [µM] | IC50 ([2]; Homo sapiens, G-361, 72 hours) [µM] | IC50 (HOS; Homo sapiens, HOS) [µM] | IC50 ([3]; Homo sapiens, K562, 72 hours) [µM] | IC50 ([4]; Homo sapiens) [µM] | IC50 (promyelocytic HL-60; Homo sapiens, HL-60, 72 hours) [µM] | IC50 (mouse fibroblasts NIH3T3; Mus musculus, NIH3T3, 72 hours) [µM] | Concentration with highest activity ([5]; 48 h dark) | Activity (%) [10^−5 mol · l^−1 BAP = 100%] ([5]; at concentration with highest activity) [%] | Concentration with highest activity ([6]; chlorophyll retention in excised wheat leaf tips, 96 h dark) | Activity (%) [10^−4 mol · l^−1 BAP = 100%] ([6]; chlorophyll retention, at concentration with highest activity) [%] | Activity (%) [10^−5 mol · l^−1 BAP = 100%] ([7]; callus growth, at concentration with highest activity) [%] | Concentration with highest activity ([7]; fresh callus weight after four weeks)
COc1ccccc1CNc1nc(Cl)nc2c1ncn2C1OC(CO)C(O)C1O (centres unmarked) [R2 = Cl, 2-methoxyxybenzylamino] | > 167 | > 167 | 15.3 | 14.5 | 2.7 | 1.5 | > 167 | – | – | – | – | – | – | – | – | – | – | – | – | –
COc1ccc(CNc2nc(Cl)nc3c2ncn3[C@@H]2O[C@H](CO)[C@@H](O)[C@H]2O)cc1 [R2 = Cl, 4-methoxyxybenzylamino] | > 167 | 105 | > 167 | > 167 | > 167 | > 167 | > 167 | – | – | – | – | – | – | – | – | – | – | – | – | –
C/C(=C\CNc1ncnc2c1ncn2[C@@H]1O[C@H](CO)[C@@H](O)[C@H]1O)CO [zeatin riboside, reference compound] | > 167 | > 167 | > 167 | > 167 | > 167 | > 167 | > 167 | – | – | – | – | – | – | – | – | – | – | – | – | –
Nc1ncnc2c1ncn2[C@@H]1O[C@H](CO)[C@@H](O)[C@H]1O [adenosine] | – | – | – | – | – | – | – | > 167 | > 167 | > 167 | > 167 | > 167 | > 167 | > 167 | – | – | – | – | – | –
COc1ccc(O)c(CNc2ncnc3c2ncn3[C@@H]2O[C@H](CO)[C@@H](O)[C@H]2O)c1 [2-hydroxy-5-methoxybenzylamino, 6-(2-hydroxy-5-methoxybenzylamino)purine riboside] | 21 | 102 | > 167 | 15.4 | 0.2 | 0.1 | > 167 | – | – | – | – | – | – | – | – | – | – | – | – | –
OC[C@H]1O[C@@H](n2cnc3c(NCc4cccc(Cl)c4O)nc(Cl)nc32)[C@H](O)[C@@H]1O [R2 = Cl, 2-hydroxy-3-chlorobenzylamino] | 14 | 118 | > 167 | 10 | 0.2 | 0.1 | > 167 | – | – | – | – | – | – | – | – | – | – | – | – | –
COc1ccc(CNc2ncnc3c2ncn3[C@@H]2O[C@H](CO)[C@@H](O)[C@H]2O)cc1 [4-methoxybenzylamino, 6-(4-methoxybenzylamino)purine riboside] | > 167 | 115 | > 167 | > 167 | > 167 | > 167 | > 167 | – | – | – | – | – | – | – | 10^−4 mol · l^−1 | 17 ± 8 | 10^−4 mol · l^−1 | 110 ± 9 | 2 ± 2 | 10^−6 mol · l^−1
OC[C@H]1O[C@@H](n2cnc3c(NCc4ccc(O)cc4)ncnc32)[C@H](O)[C@@H]1O [4-hydroxybenzylamino, 6-(4-hydroxybenzylamino)purine riboside] | > 167 | > 167 | > 167 | > 167 | 39.7 | 9.5 | > 167 | – | – | – | – | – | – | – | – | – | – | – | – | –

Reference: patent US8119614B2, “Substitution derivatives of N6-benzyladenosine, methods of their preparation, their use for preparation of drugs, cosmetic preparations and growth regulators, pharmaceutical preparations, cosmetic preparations and growth regulators containing these compounds” (Ustav Experimentalni Botaniky Akademie Ved Ceske Republiky, priority 2002, dated 2012)
